Patent publication US10125184B2, “Apolipoprotein E polypeptides and their use” (priority 2011, dated 2018)
Ends that are not written are not given here. Peptide text beside a SMILES is read from it.

Legend:
JFH-1 HCVcc-Luc = conditions: for IC50: HCVcc infection of Huh7.5.1 cells
Description: FIGS. 1A-1C. […] (A) Schematic illustration of apoE protein domains and the amino acid sequences of hEP and mEP peptides. The amino acid sequences shown are hEP-1 (SEQ ID NO: 6) and mEP (SEQ ID NO: 20). […] Huh7.5.1 cells were infected with JFH-1 HCVcc-Luc (MOI˜0.5) in the presence of hEP or mEP for 2 hours. After removal of virus and peptides, cells were further incubated for 48 hours prior to luciferase assay. Data are presented as % inhibition relative to control infections in which cells were treated with DMSO (0%). Results are expressed as mean±standard deviation (s.d.) (n=3). (C). Huh7.5.1 cells were treated with hEP or DMSO at indicated doses for 48 hours. The effect of hEP on cell viability was measured by a CellTiter Glo assay kit.
FIGS. 7A-7E. Mapping the anti-viral activity of hEP. In (A) and (B), HCVcc-luc was first mixed with indicated peptides (20 μg/ml, 2.7 μM) and then incubated with Huh7.5.1 cells for two hours at 37° C. to initiate infection. After additional 48 hours incubation, luciferase activity was measured. Results are presented as fold of inhibition relative to infections containing DMSO (n=5, mean±sd). (C) 20 μg of hEP-2 or hEP-2/ΔCys were resuspended in PBS and kept at room temperature for 30 minutes. Peptides were then mixed with 2×SDS-sample buffer without DTT and boiled for 5 minutes. Alternatively, samples were simply left unboiled or mixed with sample buffer containing DTT (2 mM). Peptide samples were then subjected to electrophoresis on a 16% tricine non-reducing gel (Invitrogen). […] (D) and (E) Mass spectrometric analysis of hEP-2 or hEP-2/ΔCys.
Detailed procedures involving the production and use of HCVpp and HCVcc have been published elsewhere (Liu et al., J Virol 2009; 83:2011-2014; Yang et al., Hepatology 2008; 48:1396-1403; Yang et al., J Biol Chem 2008; 283:8643-8653). Production procedure of HCVcc expressing firefly luciferase that was inserted between NS5A and NS5B (JFH-1 strain) was described elsewhere (Liu et al., Virology 2010; 407:160-170). Unless otherwise indicated, viruses were typically added to cells for two hours before removal. Cells were incubated for additional 48 hours followed by luciferase assay. When purification was needed, HCVcc were subjected to ultracentrifugation (SW41, 28,000×g) for 4 hours through a 20% sucrose cushion. Deidentified human sera, collected from five patients containing high-titer HCV (HCVser), were obtained.

[1] = DMPC binding assay (turbidity OD490nm); conditions: reduction (percentage) of turbidity (OD490nm) of DMPC solution, plateau 10 minutes after addition of peptide
Description: FIGS. 3A-3C. Both hEP and mEP mediate plasma cholesterol clearance through hepatic lipoprotein receptors. (A) DMPC binding assay was conducted as described in the examples section. The turbidity of DMPC vesicle solution was monitored by OD490 nm. The curves were representative of two independent experiments. (B) HEK293T cells were loaded with DiI-LDL (5 μg/ml) along with apoE peptide-DMPC particles which competed with DiI-LDL for LDLR binding and LDLR-mediated endocytosis (for 30 min) n=3 for each group. (C) Each peptide (100 μg in 100 μl PBS) was retro-orbitally injected into 6-month-old apoE−/− mice (two mice each group). PBS (100 μl) was injected into two other mice as control. Before (set as 0 min time point) and 5 min, 30 min, 1 h, 2 h, and 4 h after the peptide or PBS injection, 30 μl blood samples were drawn for plasma cholesterol measurement using total Cholesterol Reagent Kit (Raichem, San Diego, Calif.).
1,2-dimyristoyl-sn-glycero-3-phosphatidylcholine (DMPC) (Avanti Polar Lipids Inc., Alabaster, Ala.) was dissolved in chloroform: methanol (3:1, v/v). It was dried thoroughly under a stream of N2. The dried lipid sample was dispersed in pre-warmed buffer (10 mM Tris-HCl, pH7.2; 150 mM NaCl; 0.5 mM EDTA) to final lipid concentration of 10 mg/ml, vortexed for 1 min, and sonicated 10 times at lowest power for 10 seconds at 24° C. The peptide solution, lipid solution and buffer were all maintained at 23.9° C. One milliliter buffer and 250 μg (25 μl lipid solution) were added in a quartz cuvette, and let equilibrate for 10 min, resulting in a turbid DMPC vesicle solution. Peptide solution (250 μg in 100 μl) was then added to turbid solution in the cuvette, the solution was mixed immediately, and the change of turbidity was monitored by OD at 490 nm as a function of time. If the peptide binds to DMPC vesicles, the large DMPC vesicles will be transformed into smaller DMPC-peptide particles, reducing the turbidity of the solution.

HCVcc-luc = assay: Attachment versus post-attachment inhibition assay; type: cell-based, Hepatitis C virus; conditions: heparin 200 μg/ml, anti-CD81 5 μg/ml, hEP 20 μg/ml, bafilomycin A1 10 nM
Description: FIGS. 5A-5D. hEP inhibits HCV entry at the attachment step. (A) HCVcc-luc was first mixed with either scrambled peptide or hEP-2 (20 μg/ml) for one hour at room temperature. In Group 1, mixed virus was directly added to Huh7.5.1 cells, whereas in Group 2, virus was purified through ultracentrifuge at 28,000×g for 4 hours in order to remove peptide, and then used to infect Huh7.5.1 cells. **p<0.005. (B) The kinetics of hEP- and bafilomycin A1-mediated inhibition were determined by time-of-addition assays, as described in the examples section. Fitted lines represent sigmoidal time-dependent curves (mean of n=3; error bars, s.d.). (C) HCVcc-Luc was added to Huh7.5.1 cells at 4° C. and incubated for 1.5 hrs. Unbound virus was removed by 2 washes with cold media, fresh media was added, and the cells were shifted to 37° C. to allow synchronous infection to proceed. Heparin (200 μg/ml), anti-CD81 monoclonal antibody (5 μg/ml), hEP (20 μg/ml), or bafilomycin A1 (10 nM) were present in the media either continuously, during the 4° C. incubation only (attachment), or during the 37° C. incubation phase only (post-attachment). % Inhibition was calculated as 100-percent infection relative to control infections containing DMSO or an isotype antibody control containing 0.01% sodium azide (for anti-CD81 only) (mean of n=3; error bars, s.d.). (D) The effects of hEP (2.7 μM) or scrambled peptide on HCV binding were determined as described in the examples section. Results were calculated as relative RNA copies with numbers obtained from the scrambled peptide treated wells set to 100 (mean of n=3; error bars, s.d.). **p<0.005.
To investigate the mechanistic action of hEP, three sets of experiments were conducted. First, hEP-2 (SEQ ID NO: 9) or scrambled peptide-treated HCVcc were purified through ultracentrifugation to remove the peptide and then used to infect naïve Huh7.5.1 cells. […] Second, to determine the kinetics of inhibition, a time-of-addition experiment was conducted. HCV remained sensitive to bafilomycin A1, a fusion inhibitor that prevents endosome acidification, until 3 hours after the 37° C. temperature shift (FIG. 5B), which is consistent with previous reports (Koutsoudakis et al., J Virol 2006; 80:5308-5320). […] In order to determine whether hEP-2 (SEQ ID NO: 9) blocks infection at the initial attachment step or a downstream event in the HCV entry process, hEP-2 (SEQ ID NO: 9) was either added together with HCVcc to cells during the 4° C. attachment step only, and then removed prior to shifting the temperature to 37° C., or added only after the temperature shift. As a positive control, hEP-1 was present during the entire course of the experiment. […] Finally, the direct binding of virions to cell surface was measured using a real-time PCR based assay.

Compound | solubility (physchem) [µg/mL] | IC50 (JFH-1 HCVcc-Luc) [µM] | also measured
CEEQAQQIRLQAEAFQARLKSWFEPLVEDM [hEP-3] | < 220 |  | Inhibition of HCVcc infection/entry (in words) (JFH-1 HCVcc-Luc; Huh7.5.1 cells): dramatically reduced ability to inhibit HCVcc entry; DMPC binding [1]: + (+, reduction 25-50%)
CC(C)C[C@H](NC(=O)[C@H](CC(=O)O)NC(=O)[C@H](CC(=O)O)NC(=O)[C@H](C)NC(=O)[C@H](CC(=O)O)NC(=O)[C@H](CCCNC(=N)N)NC(=O)[C@H](CC(C)C)NC(=O)[C@H](CC(C)C)NC(=O)[C@H](CCCNC(=N)N)NC(=O)[C@H](CCCCN)NC(=O)[C@H](CCCNC(=N)N)NC(=O)[C@H](CC(C)C)NC(=O)[C@H](CCCCN)NC(=O)[C@H](CCCNC(=N)N)NC(=O)[C@H](CC(C)C)NC(=O)[C@H](Cc1c[nH]cn1)NC(=O)[C@H](CO)NC(=O)[C@H](C)NC(=O)[C@H](CC(C)C)NC(=O)[C@H](CCCNC(=N)N)NC(=O)[C@@H](NC(=O)[C@H](CCCNC(=N)N)NC(=O)[C@H](CC(C)C)NC(=O)[C@H](CCC(=O)O)NC(=O)[C@@H](N)CCC(=O)O)C(C)C)C(=O)O [hEP-8] |  | > 10 | 
CVRLASHLRKLRKRLLRDADDLQKRLAVY [hEP-10] | > 220 | 0.8 | 
CEELRVRLASHLRKLRKRLLRDADDLQKRLAVY [hEP-2] | > 220 | 0.5 | 
heparin [reference compound] |  |  | Inhibition when present during the 4° C. attachment step only (HCVcc-luc): predominant
LRVRLASHLRKLRKRLLRDADDLQKRLAVY [hEP-7] |  | > 10 | 
EELRVRLASHLRKLRKRLLRDADDLQKRLAVY [hEP-2/ΔCys] | > 220 | > 10 | 
CEEIRARLSTHLRKMRKRLMRDADDLQKRLAVY [mEP-2] | > 220 | > 10 | 
CC(C)C[C@H](NC(=O)[C@H](CC(C)C)NC(=O)[C@H](CCCNC(=N)N)NC(=O)[C@H](CCCCN)NC(=O)[C@H](CCCNC(=N)N)NC(=O)[C@H](CC(C)C)NC(=O)[C@H](CCCCN)NC(=O)[C@H](CCCNC(=N)N)NC(=O)[C@H](CC(C)C)NC(=O)[C@@H](N)CS)C(=O)N[C@@H](CCCNC(=N)N)C(=O)N[C@@H](CS)C(=O)O [hEP-12, CLRKLRKRLLRC] (H-CLRKLRKRLLRC-OH; N-terminus and C-terminus assumed) | < 220 | > 10 | 
CVRLASHLRKLRKRLLRDADDL [hEP-4] | < 220 | > 10 | 
CC[C@H](C)[C@H](NC(=O)[C@@H](N)CS)C(=O)N[C@@H](CCCNC(=N)N)C(=O)N[C@@H](CC(C)C)C(=O)N[C@@H](CCC(N)=O)C(=O)N[C@@H](C)C(=O)N[C@@H](CCC(=O)O)C(=O)N[C@@H](C)C(=O)N[C@@H](Cc1ccccc1)C(=O)N[C@@H](CCC(N)=O)C(=O)N[C@@H](C)C(=O)N[C@@H](CCCNC(=N)N)C(=O)N[C@@H](CC(C)C)C(=O)N[C@@H](CCCCN)C(=O)N[C@@H](CO)C(=O)N[C@@H](Cc1c[nH]c2ccccc12)C(=O)N[C@@H](Cc1ccccc1)C(=O)N[C@@H](CCC(=O)O)C(=O)N1CCC[C@H]1C(=O)N[C@@H](CC(C)C)C(=O)N[C@H](C(=O)O)C(C)C [hEP-5] |  | > 10 | 
CC(C)C[C@H](NC(=O)[C@H](CC(=O)O)NC(=O)[C@H](CC(=O)O)NC(=O)[C@H](C)NC(=O)[C@H](CC(=O)O)NC(=O)[C@H](CCCNC(=N)N)NC(=O)[C@H](CC(C)C)NC(=O)[C@H](CC(C)C)NC(=O)[C@H](CCCNC(=N)N)NC(=O)[C@H](CCCCN)NC(=O)[C@H](CCCNC(=N)N)NC(=O)[C@H](CC(C)C)NC(=O)[C@H](CCCCN)NC(=O)[C@H](CCCNC(=N)N)NC(=O)[C@H](CC(C)C)NC(=O)[C@H](Cc1c[nH]cn1)NC(=O)[C@H](CO)NC(=O)[C@H](C)NC(=O)[C@H](CC(C)C)NC(=O)[C@H](CCCNC(=N)N)NC(=O)[C@@H](NC(=O)[C@H](CCCNC(=N)N)NC(=O)[C@H](CC(C)C)NC(=O)[C@@H](N)CS)C(C)C)C(=O)O [hEP-11] | < 220 | 4 | 
VRLASHLRKLRKRLLRDADDLIRLQAEAFQARLKSWFEPLV [hEP-6] |  | > 10 | 
CVDRYEARLRARALKDRQKRLLKELSLLVRHLD [Scrambled, reference compound] | > 220 | > 10 | 
VRLASHLRKLRKRLLRDADDLQKRLAVY [hEP-9] |  | > 10 | 
